Data published in US9982242B2, “Protein complex capable of catalyzing asymmetric oxidation reaction and method for producing same” (SANYO FOODS CO., LTD., priority 2012, dated 2018).

What follows are compounds tested on CLPC. Details: 1 mM.
For `O=C(O)CN(CCN(CC(=O)O)CC(=O)O)CC(=O)O` [EDTA], the “effect of additive on CLPC activity” value was “activity was completely lost”. In the case of `[Cl-].[Cl-].[Zn+2]` [ZnCl2], the “effect of additive on CLPC activity” value is reported as “inhibitory activity was observed”.

Same assay, conditions: additive 1.0 mM, CLPC 20 mg, rac-2 0.8 mM, […], 48 h
With `O=S(=O)([O-])[O-].[Cu+2]` [CuSO4] the “OP/% ee of (S)-2 with additive” value was 86.2 % ee. In the case of `[Cl][Ni][Cl]` [NiCl2], the “OP/% ee of (S)-2 with additive” value is reported as 77.7 % ee. With `[Cl][Mn][Cl]` [MnCl2] the “OP/% ee of (S)-2 with additive” value was 80.4 % ee. `[Cl][Fe]([Cl])[Cl]` [FeCl3] was tested, and the “OP/% ee of (S)-2 with additive” value was 79.6 % ee. With `[Ca+2].[Cl-].[Cl-]` [CaCl2] the “OP/% ee of (S)-2 with additive” value was 97.7 % ee. `[Cl-].[Cl-].[Zn+2]` [ZnCl2] was tested, and the “OP/% ee of (S)-2 with additive” value was 1.7 % ee. `c1cnc2c(c1)ccc1cccnc12` [o-phenanthroline] was tested, and the “OP/% ee of (S)-2 with additive” value was 1.4 % ee. With `O=S(=O)([O-])[O-].[Mg+2]` [MgSO4] the “OP/% ee of (S)-2 with additive” value was 91.2 % ee.
